The assay deals with T1, human phospho-Mek1 / non-phosphorylated Mek1 (Homo sapiens, UniProt Q02750).
T1 construct: GST (N); His6 (C); purchased Upstate 14-429 (phospho-Mek1) or 14-420 (non-phosphorylated Mek1)
Briefly: In vitro Mek1 Kinase Assay. The class given is biochemical. As to conditions: recombinant GST/His6-tagged Mek1, 2 μM ATP, 2 hours at 30° C., PKLight luminescence readout. Here is the method:
In vitro Mek1 Kinase Assay
2.5 μl of Mek1 kinase buffer (10 mM MOPS [pH 7.2], 25 mM sodium glycerophosphate, 5 mM EGTA [pH 8.0], 1 mM sodium orthovanadate, 1 mM dithiothreitol, 10 mM MgCl2, 0.1% Brij-35, 0.3 mg/ml bovine serum albumin) containing either 5 ng of high specific activity, recombinant N-terminal GST-tagged, C-terminal His6-tagged human phospho-Mek1 (Upstate Cat. 14-429), or 200 ng of low specific activity, non-phosphorylated Mek1 (Upstate Cat. 14-420), is dispensed into one well of a 1536 multi-well white solid plate. 50 nl of 100× concentration of test compound in dimethyl sulfoxide (DMSO) is dispensed to the well by passive pin transfer and incubated for 15 minutes at room temperature (22° C.). 2.5 μl of Mek1 kinase buffer containing 2 μM ATP is then dispensed and the kinase reaction is allowed to incubate at 30° C. for 2 hours. The assay plates are lidded and maintained in a humidified environment. After 2 hours, 2.5 μl of PKLight protein kinase assay reagent (Cambrex) is dispensed. After an additional 5 minute incubation at room temperature, luminescence activity is measured on a suitable multi-mode plate reader. Inhibition of Mek1 kinase causes an associated increase in luminescence activity that is proportional to compound concentration. Negative control activity is measured with DMSO lacking any test compound. Positive control activity is measured with (R)—N— (2,3-dihydroxypropoxy)-3,4-fluoro4-iodophenylamino)benzamide [Thompson, N. and Lyons, J., Curr Opin Pharmacol, 5:350-356, 2005 (PD-0325901)]. Efficacy is measured as a percentage of positive control activity.

Some results are limits rather than exact numbers.

T1 sequence (Q02750 whole entry): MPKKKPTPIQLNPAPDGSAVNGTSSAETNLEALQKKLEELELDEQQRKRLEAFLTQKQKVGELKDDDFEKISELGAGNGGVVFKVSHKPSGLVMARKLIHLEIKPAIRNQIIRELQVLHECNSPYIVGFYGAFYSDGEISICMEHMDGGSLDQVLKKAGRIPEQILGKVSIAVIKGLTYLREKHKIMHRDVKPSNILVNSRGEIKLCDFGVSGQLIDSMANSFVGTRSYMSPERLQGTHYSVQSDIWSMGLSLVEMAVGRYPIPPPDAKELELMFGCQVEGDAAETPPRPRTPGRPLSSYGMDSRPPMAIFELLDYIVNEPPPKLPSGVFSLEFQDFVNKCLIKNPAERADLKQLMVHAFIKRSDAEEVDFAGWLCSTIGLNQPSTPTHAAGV

In the case of `O=C(O)c1ccc(-c2cnc3ccc(NC4CCC(O)CC4)nn23)cc1` (stereo not shown) [Example 15, 4-(6-(4-hydroxycyclohexylamino)imidazo[1,2-b]pyridazin-3-yl)benzoic acid], the IC50 was not above 10 µM.

As to `c1ccc2c(c1)CCN2c1ncnc2[nH]cnc12` [Example 5, 6-(indolin-1-yl)-9H-purine], the IC50 was more than 10 µM.

Take `CCCNc1ccc2ncc(-c3ccc(C(=O)O)cc3)n2n1` [Example 22, 4-(6-(propylamino)imidazo[1,2-b]pyridazin-3-yl)benzoic acid]: the IC50 was more than 10 µM.

Take `CCN(c1ncnc2[nH]cnc12)C1CCCCC1` [Example 4, N-cyclohexyl-N-ethyl-9H-purin-6-anime]: the IC50 was not above 10 µM.

With `N#Cc1ccc(-c2cnc3ccc(NCCCO)nn23)cc1` [Example 18, 4-(6-(3-hydroxypropylamino)imidazo [1,2-b]pyridazin-3-yl)benzonitrile], the IC50 was not above 10 µM.

In the case of `c1ccc2c(c1)[nH]c1ncnc(N3CCOCC3)c12` [Example 1, 4-(9H-pyrimido[4,5-b]indol-4-yl)morpholine], the IC50 was not above 10 µM.

On to `CC1CCN(c2ncnc3[nH]cnc23)CC1` [Example 6, 6-(4-methylpiperidin-1-yl)-9H-purine], for which the IC50 is more than 10 µM.

For the molecule `CC(C)(C)n1nc(-c2ccc(F)cc2)c2c(N)ncnc21` [Example 3, 1-tert-butyl-3-(4-fluorophenyl)-1H-pyrazolo[3,4-d]pyrimidin-4-amine], the IC50 is not above 10 µM.

With `N#Cc1ccc(-c2cnc3ccc(NCCc4cccnc4)nn23)cc1` [Example 20, 4-(6-(2-(pyridin-3-yl)ethylamino)imidazo[1,2-b]pyridazin-3-yl)benzonitrile], the IC50 was not above 10 µM.

For `N#Cc1ccc(-c2cnc3ccc(NCCc4ccccn4)nn23)cc1` [Example 19, 4-(6-(2-(pyridin-2-yl)ethylamino)imidazo[1,2-b]pyridazin-3-yl)benzonitrile], the IC50 is not above 10 µM.

Consider `c1nc2nc[nH]c(NC3CCCCCC3)c-2n1` [Example 17, N-cycloheptyl-9H-purin-6-amine], for which the IC50 was more than 10 µM.

On to `O=C(O)c1ccc(-c2cnc3ccc(NCc4cccs4)nn23)cc1` [Example 9, 4-(6-(thiophen-2-ylmethylamino)imidazo[1,2-b]pyridazin-3-yl)benzoic acid], for which the IC50 is not above 10 µM.

Regarding `COc1cc(OC)c2c(c1)ncc1c(C)nn(-c3ccccc3)c12` [Example 7, 7,9-dimethoxy-3-methyl-1-phenyl-1H-pyrazolo[4,3-c]quinoline], the IC50 was not above 10 µM.

As to `O=C(O)c1ccc(-c2cnc3ccc(NC4CCOCC4)nn23)cc1` [Example 13, 4-(6-(tetrahydro-2H-pyran-4-ylamino)imidazo[1,2-b]pyridazin-3-yl)benzoic acid], the IC50 is not above 10 µM.

Regarding `N#Cc1ccc(-c2cnc3ccc(NC4CCOCC4)nn23)cc1` [Example 12, 4-(6-(tetrahydro-2H-pyran-4-ylamino)imidazo[1,2-b]pyridazin-3-yl)benzonitrile], the IC50 is not above 10 µM.

In the case of `O=C(O)c1ccc(-c2cnc3ccc(NCc4ccc(F)cc4)nn23)cc1` [Example 10, 4-(6-(4-fluorobenzylamino)imidazo[1,2-b]pyridazin-3-yl)benzoic acid], the IC50 is not above 10 µM.

`CN(C)CCNc1ccn2ncc(-c3ccc(Cl)cc3)c2n1` [Example 21, N1-(3-(4-chlorophenyl)pyrazolo[1,5-a]pyrimidin-5-yl)-N2,N2-dimethylethane-1,2-diamine]: the IC50 was more than 10 µM.

As to `Cn1cc(-c2cnc3ccc(NCc4cccs4)nn23)cn1` [Example 11], the IC50 was not above 10 µM.

As to `CC(=O)c1ccc(-c2cnc3ccc(NCc4cccs4)nn23)s1` [Example 8, 1-(5-(6-(thiophen-2-ylmethylamino)imidazo[1,2-b]pyridazin-3-yl)thiophen-2-yl)ethanone], the IC50 is more than 10 µM.

For `Cc1c([N+](=O)[O-])c2ccc(O)cc2n1-c1ccccc1` [Example 2, 2-methyl-3-nitro-1-phenyl-1H-indol-6-ol], the IC50 is not above 10 µM.

Take `c1nc(NC2CCCC2)c2nc[nH]c2n1` [Example 16, N-cyclopentyl-9H-purin-6-amine]: the IC50 was more than 10 µM.

As to `COc1cncc(-c2cnc3ccc(NC4CCOCC4)nn23)c1` [Example 14, 3-(5-methoxypyridin-3-yl)-N-(tetrahydro-2H-pyran-4-yl)imidazo[1,2-b]pyridazin-6-amine], the IC50 is more than 10 µM.

The values above are taken from patent publication US20070049591A1, “Inhibitors of MAPK/Erk Kinase” (KALYPSYS, INC., priority 2005, published 2007).
